Source: patent publication US9770421B2, “Uses for idebenone and related benzoquinones in metabolic disorders and other PPAR α/γ related diseases and conditions” (INDANIO BIOSCIENCE INC., priority 2013, dated 2017)
“Also recorded” adds a separate entry of the source.

Legend:
[1] = molecular target: T1, human PPARγ LBD (residues 206-477) (Homo sapiens, UniProt P37231); assay: Stargazer thermostabilization assay; type: binding; conditions: 0.2 mg/ml PPARγ LBD, heated to 80° C.
T1 construct: human PPARγ LBD (residues 206-477), expressed in pRSET; His tag (implied by Ni-NTA purification and the pRSET vector); made in house; host or cells: E. coli BL21 codon plus (pRSET)
T1 sequence (P37231 206-477 isoform P37231-2): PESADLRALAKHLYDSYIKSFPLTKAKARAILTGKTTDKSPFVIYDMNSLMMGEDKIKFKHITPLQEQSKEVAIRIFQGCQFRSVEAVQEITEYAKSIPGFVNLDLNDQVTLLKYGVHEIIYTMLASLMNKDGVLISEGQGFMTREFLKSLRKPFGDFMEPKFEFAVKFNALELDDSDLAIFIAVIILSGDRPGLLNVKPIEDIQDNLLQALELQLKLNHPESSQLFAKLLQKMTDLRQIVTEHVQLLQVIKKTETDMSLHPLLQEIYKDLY

hPPARγ = molecular target: T2, hPPARγ (Homo sapiens, UniProt P37231); assay: PPARγ ligand trap (LT) zebrafish GFP reporter screen/assay; type: in vivo; design: pLT PPARα (aa 178-468) and pLT PPAR γ (aa 188-477) lines; expressed in transfected cells; host or cells: transgenic zebrafish embryos (heat-induced ligand-trap line); conditions: for GFP reporter activation in LT-PPARγ embryos: transgenic embryos, 48 hpf images
T2 sequence (P37231 188-477 isoform P37231-2): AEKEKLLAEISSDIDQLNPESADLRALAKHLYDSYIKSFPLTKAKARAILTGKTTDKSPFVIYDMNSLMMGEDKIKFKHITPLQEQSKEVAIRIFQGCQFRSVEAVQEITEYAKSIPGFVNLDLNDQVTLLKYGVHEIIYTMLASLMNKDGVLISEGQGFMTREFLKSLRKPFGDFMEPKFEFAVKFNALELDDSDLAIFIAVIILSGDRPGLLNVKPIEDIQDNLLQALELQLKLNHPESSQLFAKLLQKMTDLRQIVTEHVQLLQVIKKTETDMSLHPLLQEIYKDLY
Method: Digested DNA was adjusted with 0.1% phenol red. 4.6 nl of DNA solution was injected into the blastomeres of early one-cell stage embryos.
F0 fish were crossed with WT fish to identify germ-line transformed animals, as determined by agonist treatments and GFP expression. F1 progeny showing strong and consistent GFP responses were selected for F2 homozygote production. To avoid reporter GFP silencing of stable transgenic LT lines, homozygous fish showing strong and consistent GFP responses were selected for continued propagation of next generations.
PPARγ ligand trap zebrafish screens were performed under optimized conditions in 96-well format using the ImageXpress Velos Laser Scanning Cytometer. 1 or 2 dpf embryos were heat induced (28→37° C.) for 30 minutes, de-chorionated and then arrayed in 96-well plates (5 per well). Embryo water (0.075 g/L NaHCO3, 0.018 g/L Sea salt, 0.0084 g/L CaSO42H2O) was removed and 200 μl of fresh embryo water/well including dissolved small molecules or solvent was added.
Also included was the CoQ10 analog idebenone.

[2] = molecular target: T3, affinity-tagged PPARγ expressed in zebrafish (Homo sapiens, UniProt P37231); assay: Affinity purification of PPARγ from LT fish and LC-MRM of bound drugs; type: binding; conditions: 1 μM rosiglitazone or 4 μM idebenone; purification in 1M NaCl
T3 construct: pLT PPARα (aa 178-468) and pLT PPAR γ (aa 188-477) lines; expressed in transfected cells; host or cells: transgenic zebrafish embryos (heat-induced ligand-trap line)
T3 sequence (P37231 188-477 isoform P37231-2): T2 sequence (P37231 188-477 isoform P37231-2)

PPARγ LBD = molecular target: T4, PPARγ LBD (Homo sapiens, UniProt P37231); assay: In vitro co-purification with His-tagged PPARγ LBD, MS; type: binding; conditions: incubated with 10 μM idebenone
T4 construct: His-tagged PPARα, δ and γ LBDs were expressed in bacteria, Ni-NTA purified; His; made in house; host or cells: bacteria (E. coli)
T4 sequence (P37231 238-503 limits assumed): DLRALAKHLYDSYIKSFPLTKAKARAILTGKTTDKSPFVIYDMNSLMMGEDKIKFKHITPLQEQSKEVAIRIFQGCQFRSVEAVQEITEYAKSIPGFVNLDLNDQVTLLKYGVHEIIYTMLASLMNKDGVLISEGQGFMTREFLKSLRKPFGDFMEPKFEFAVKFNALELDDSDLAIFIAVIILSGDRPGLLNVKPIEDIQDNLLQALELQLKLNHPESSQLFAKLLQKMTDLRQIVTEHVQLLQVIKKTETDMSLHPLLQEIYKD
Method: To see if idebenone can bind to directly to other PPAR LBDs, His-tagged PPARα, δ and γ LBDs were expressed in bacteria, Ni-NTA purified and incubated with 10 μM idebenone. After several washes in a 10 kDa cut off Amicon centrifuge filter (Millipore), lipids were extracted and analyzed by MS.

PPARα = molecular target: T5, PPARα (Homo sapiens, UniProt Q07869); assay: HEK293 cell culture luciferase reporter assay, hPPARα
T5 sequence (Q07869 178-468): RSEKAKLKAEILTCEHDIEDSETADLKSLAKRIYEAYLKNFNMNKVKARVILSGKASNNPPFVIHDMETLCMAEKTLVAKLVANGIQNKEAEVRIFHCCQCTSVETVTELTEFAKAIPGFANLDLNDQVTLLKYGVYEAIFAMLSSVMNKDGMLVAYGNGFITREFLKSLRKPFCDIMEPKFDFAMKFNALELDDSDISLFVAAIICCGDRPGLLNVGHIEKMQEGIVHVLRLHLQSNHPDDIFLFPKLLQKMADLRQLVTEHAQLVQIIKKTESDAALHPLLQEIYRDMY

hPPARδ/β = molecular target: T6, hPPARδ/β (Homo sapiens, UniProt Q03181); assay: HEK293 cell culture luciferase reporter assay, hPPARδ/β; conditions: HEK293
T6 sequence (Q03181 143-441): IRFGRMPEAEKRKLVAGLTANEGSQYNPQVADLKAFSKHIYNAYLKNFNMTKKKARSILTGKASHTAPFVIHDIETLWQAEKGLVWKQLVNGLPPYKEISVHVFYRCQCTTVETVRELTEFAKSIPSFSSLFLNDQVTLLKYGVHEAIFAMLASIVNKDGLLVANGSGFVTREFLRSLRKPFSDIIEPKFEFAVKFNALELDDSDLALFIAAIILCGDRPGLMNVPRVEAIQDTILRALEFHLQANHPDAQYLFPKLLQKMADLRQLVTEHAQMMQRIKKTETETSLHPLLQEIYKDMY

- Shift of thermal denaturation transition temperature [1]: 5.5 °C
- Hit activating the PPARγ ligand trap reporter fish line (hPPARγ; Enzo FDA approved drug library, screened at 1, 3 and 10 μM): hits
- Concentration yielding maximal activation in fish reporter system (hPPARγ; in vivo): ≥ 4 µM
- EC50 (hPPARγ; zebrafish ligand trap, read-out: EC50 in fish): 2 µM
- Binding to PPARγ LBD (co-purification, MS) (PPARγ LBD): strong binding
- EC50 (PPARα): 3 µM
- Response of PPARδ/β in cultured cells (hPPARδ/β): no response
SMILES: COC1=C(OC)C(=O)C(CCCCCCCCCCO)=C(C)C1=O [Idebenone, 2-(10-hydroxydecyl)-5,6-dimethoxy-3-methyl-2,5-cyclohexadiene-1,4-dione]
- GFP reporter activation in LT-PPARγ embryos (hPPARγ): more limited GFP expression in cells of the blood, epidermis and CNS
- GFP reporter activation in LT-PPARγ embryos (hPPARγ; listed as idebenone): weaker and less widespread than responses to rosiglitazone or pioglitazone; also recorded: dual agonists for PPARα and PPARγ
- Co-purification with PPARγ from LT fish (LC-MRM) [2]: yielded idebenone in the affinity purification eluate; also recorded: co-purify with affinity-tagged PPARγ
- Maximum activation level versus full agonist, PPARα (PPARα; HEK293, full agonist GW7647): significantly lower than those obtained using the full agonists
